Literature values as cited in US4039549A, “Olefinic derivatives of amino acids” (Merrell Toraude et Compagnie, priority 1976, dated 1977).

Assays:
[1] = system: γ-aminobutyric acid transaminase; conditions: literature
[2] = system: brain levels of γ-aminobutyric acid; conditions: reversible effect; literature

Row | Structure (SMILES) | inhibition of γ-aminobutyric acid transaminase (mode) [1] | duration of effect (elevation of brain γ-aminobutyric acid levels) [2]
1 | NCC#CC(=O)O [4-aminotetrolic acid] | competitive reversible inhibitor | 
2 | CCCC(CCC)C(=O)O [n-dipropylacetate] | competitively inhibiting | about 2 hours
